Results taken from ChEMBL document CHEMBL3739363, “Discovery of bisindolyl-substituted cycloalkane-anellated indoles as novel class of antibacterial agents against S. aureus and MRSA” (2016).
Values after ≈ are worked out from the molar mass of the structure shown.

Legend:
Type in all cases: functional
Staphylococcus aureus [1] = assay: Antibacterial activity against Staphylococcus aureus ATCC 25923 by two-fold serial dilution method
Staphylococcus aureus [2] = assay: Antibacterial activity against methicillin-resistant Staphylococcus aureus ATCC 43300 by two-fold serial dilution method
Staphylococcus aureus [3] = assay: Antibacterial activity against clinical isolate methicillin-resistant Staphylococcus aureus by two-fold serial dilution method

| SMILES | MIC (Staphylococcus aureus [1]) [µg/mL] | MIC (Staphylococcus aureus [2]) [µg/mL] | MIC (Staphylococcus aureus [3]) [µg/mL] |
| --- | --- | --- | --- |
| CC(=O)n1cc([C@H]2CCC[C@@H](c3c[nH]c4ccccc34)c3[nH]c4ccccc4c32)c2ccccc21 (relative stereo) | 25 (≈ 54.6 µM) | 12.5 (≈ 27.3 µM) | 12.5 (≈ 27.3 µM) |
| CC(=O)n1cc([C@@H]2CC[C@H](c3cn(C(C)=O)c4ccccc34)c3c2[nH]c2ccccc32)c2ccccc21 (relative stereo) | 100 (≈ 206 µM) | 100 (≈ 206 µM) | 100 (≈ 206 µM) |
| Clc1ccc2c([C@@H]3CC[C@@H](c4c[nH]c5cc(Cl)ccc45)c4c3[nH]c3cc(Cl)ccc43)c[nH]c2c1 (relative stereo) | 12.5 (≈ 24.8 µM) | 12.5 (≈ 24.8 µM) | 12.5 (≈ 24.8 µM) |
| BrC1[C@@H](c2c[nH]c3ccccc23)c2[nH]c3ccccc3c2[C@@H]1c1c[nH]c2ccccc12 (relative stereo) | 3.12 (≈ 6.7 µM) | 3.12 (≈ 6.7 µM) | 6.25 (≈ 13.4 µM) |
| Clc1ccc2[nH]cc([C@@H]3CC[C@@H](c4c[nH]c5ccc(Cl)cc45)c4c3[nH]c3ccc(Cl)cc43)c2c1 (relative stereo) | 3.12 (≈ 6.19 µM) | 6.25 (≈ 12.4 µM) | 12.5 (≈ 24.8 µM) |
| ClC1[C@@H](c2c[nH]c3ccccc23)c2[nH]c3ccccc3c2[C@@H]1c1c[nH]c2ccccc12 (relative stereo) | 3.12 (≈ 7.41 µM) | 3.12 (≈ 7.41 µM) | 6.25 (≈ 14.8 µM) |
| CC(=O)n1cc([C@H]2CCC[C@@H](c3cn(C(=O)O)c4ccccc34)c3[nH]c4ccccc4c32)c2ccccc21 (relative stereo) | 100 (≈ 199 µM) | 50 (≈ 99.7 µM) | 50 (≈ 99.7 µM) |
| CC1(C)S[C@@H]2[C@H](NC(=O)[C@@H](N)c3ccccc3)C(=O)N2[C@H]1C(=O)OCOC(=O)[C@@H]1N2C(=O)C[C@H]2S(=O)(=O)C1(C)C | 0.78 (≈ 1.31 µM) | 25 (≈ 42 µM) | 25 (≈ 42 µM) |
| c1ccc2c([C@@H]3C[C@@H](c4c[nH]c5ccccc45)c4c3[nH]c3ccccc43)c[nH]c2c1 (relative stereo) | 50 (≈ 129 µM) | 12.5 (≈ 32.3 µM) | 12.5 (≈ 32.3 µM) |
| Clc1ccc2[nH]cc([C@@H]3CCC[C@@H](c4c[nH]c5ccc(Cl)cc45)c4c3[nH]c3ccc(Cl)cc43)c2c1 (relative stereo) | 3.12 (≈ 6.02 µM) | 6.25 (≈ 12 µM) | 6.25 (≈ 12 µM) |
| c1ccc2c([C@@H]3CC[C@@H](c4c[nH]c5ccccc45)c4c3[nH]c3ccccc43)c[nH]c2c1 (relative stereo) | 3.12 (≈ 7.78 µM) | 3.12 (≈ 7.78 µM) | 6.25 (≈ 15.6 µM) |
| CC1(C)S[C@@H]2[C@H](NC(=O)[C@H](N)c3ccccc3)C(=O)N2[C@H]1C(=O)O [AMPICILLIN] | 1.56 (≈ 4.46 µM) | 50 (≈ 143 µM) | 50 (≈ 143 µM) |
| Clc1ccc2c([C@@H]3CCC[C@@H](c4c[nH]c5cc(Cl)ccc45)c4c3[nH]c3cc(Cl)ccc43)c[nH]c2c1 (relative stereo) | 3.12 (≈ 6.02 µM) | 6.25 (≈ 12 µM) | 12.5 (≈ 24.1 µM) |
| CC(=O)n1cc([C@H]2CC[C@@H](c3cn(C(C)=O)c4ccccc34)c3c2c2ccccc2n3C(C)=O)c2ccccc21 (relative stereo) | 50 (≈ 94.8 µM) | 50 (≈ 94.8 µM) | 50 (≈ 94.8 µM) |
| c1ccc2c([C@@H]3CCC[C@@H](c4c[nH]c5ccccc45)c4c3[nH]c3ccccc43)c[nH]c2c1 (relative stereo) | 3.12 (≈ 7.52 µM) | 6.25 (≈ 15 µM) | 12.5 (≈ 30.1 µM) |
| c1ccc2c([C@@H]3CCCC[C@@H](c4c[nH]c5ccccc45)c4c3[nH]c3ccccc43)c[nH]c2c1 (relative stereo) | 3.12 (≈ 7.27 µM) | 6.25 (≈ 14.5 µM) | 12.5 (≈ 29.1 µM) |
